Assay results as given in a melting point compilation (Tetko et al.; mined from patent text by program, amines drawn as free bases though some values may be those of a salt).

Row | SMILES | melting point [°C]
1 | CNC(=O)C=C(c1ccc(C#N)cc1)n1ccnc1 | 172 to 180
2 | CON=C1CN(c2nc3c(cc2F)c(=O)c(C(=O)O)cn3C2CC2)CC12CN(C)C2 | 225 to 227
3 | COC(=O)c1ccc(-c2nnc(-c3ccccc3)o2)cc1 | 172 to 173
4 | CCCn1c(=O)n(CC(C)=O)c(=O)c2[nH]c(C34CC5CC(CC3C5)C4)nc21 | 181 to 184
5 | O=C(CN1C(=O)c2ccccc2C1=O)Nc1ccccc1Cl | 250
6 | O=C1C(=Cc2cccc(C(F)(F)F)c2)SC(=S)N1N=c1sc2ccccc2s1 | 268 to 269
7 | OCCC1CCc2cc(OCc3ccc(-c4ccccc4)cc3)ccc2C1 (configuration not stated) | 101 to 102
8 | CC(C)(C)CC(C)(C)c1cc(Cc2cc(C(C)(C)CC(C)(C)C)cc(-n3nc4ccccc4n3)c2O)c(O)c(-n2nc3ccccc3n2)c1 | 198
9 | C[C@H]1[C@H](O)C2(CC2)C(=O)N1c1ccc(C#N)c(Cl)c1 | 169 to 172
10 | N#CC1c2ccccc2COc2ccccc21 (configuration not stated) | 65 to 66.5
11 | COC(=O)CC1Cc2ccc(O)cc2NC1=O (configuration not stated) | 178 to 180
12 | C[C@@H](Nc1ncnc2ccncc12)c1ccccc1 | 138
13 | CCOc1ccc(C=NO)cc1 | 81 to 86
14 | CONC(=O)Nc1ccc(-c2sc3c(c2CN(C)C(C)(C(=O)O)c2ccccc2)c(=O)n(-c2ccccc2)c(=O)n3Cc2c(F)cccc2F)cc1 (configuration not stated) | 147 to 149
15 | COC(=O)c1cc(C(O)CN(C)C)ccc1OCc1ccccc1 (configuration not stated) | 79 to 81
16 | Cn1cnc2nc(-c3ccc(-c4ccccc4)cc3)nn2c1=S | 297 to 299
17 | O=c1c2ccccc2cc(N2CCCCC2)c2ccccc12 | 103 to 105
18 | CCCN(CCC)C(=O)CC1CN(Cc2ccccc2)c2ccc(OC(=O)Nc3ccc(C(C)C)cc3)cc21 (configuration not stated) | 157 to 161
19 | O=C1CCC(c2ccc(NC(=O)C3CC3(Cl)Cl)cc2)=NN1 (configuration not stated) | 267 to 268
20 | CC(C)n1nccc1-c1nn(-c2cccc(C(F)(F)F)c2)ccc1=O | 183 to 184
21 | CC(=O)CC(=O)N[C@@H](CC(=O)O)C(=O)O | 127 to 130
22 | CCOC(=O)C(=O)Nc1ccncc1 | 110 to 113
23 | O=C(O)CCc1c(Cl)cccc1-c1cccs1 | 83 to 86
24 | FC(F)(F)c1ccc(-c2ccnc(Nc3cnc4ccccc4c3)c2)cc1 | 207 to 208

Row | SMILES | melting point [°C]
25 | CCCc1cc(C(=O)NCCC(N)=O)ccc1OC(C(=O)NS(=O)(=O)c1ccc(C(C)C)cc1)c1ccc2c(c1)OCO2 (configuration not stated) | 110 to 112
26 | CN(C)Cc1ccc(CSCCNc2[nH]ccc2[N+](=O)[O-])o1 | 67
27 | O=c1cnc2c(NC(CO)CO)nc(SCc3cccc(Cl)c3F)nc2[nH]1 | 218 to 220
28 | COc1ccccc1N1CCN(CCNc2ccccc2[N+](=O)[O-])CC1 | 117 to 118
29 | CCCCCC(=O)NC(=O)N1CC1C#N (configuration not stated) | 143 to 144
30 | CNc1nc(N)nc(-c2ccccc2)c1-c1ccc(=O)n(C(C)C)n1 | 268 to 270
31 | N#CC(N=Nc1cc(S(=O)(=O)Cl)ccc1OC(=O)c1ccccc1)=C(OC(=O)c1ccccc1)c1ccccc1 | 153 to 155
32 | CCOC(=O)Cc1ccc(CNC(=O)C=Cc2ccc3[nH]cc(CC#N)c3c2)cc1 | 125 to 130
33 | CCOCC(=NNc1ccc(C(F)(F)F)cc1)C(=O)NCc1ccc(Cl)nc1 | 98 to 99
34 | Cn1cc(C(=O)NCc2ccc(Cl)cc2)c(=O)c2cc(CC3CCOCC3)cc(I)c21 | 175 to 177
35 | Cc1ccc(C(=O)NCc2ccccc2)cc1-c1nc(NCCN(C)C(=O)OC(C)(C)C)nc2c1CNC(=O)N2c1c(F)cccc1F | 160 to 163
36 | O=S1(=O)NCN(C2CC2)c2c(C(F)(F)F)cccc21 | 165 to 167
37 | CCC(C)COc1ccc(-c2ccc(OS(=O)(=O)c3ccc(C)cc3)cc2)cc1 (configuration not stated) | 94 to 97
38 | Cc1nc(Nc2ccccc2)sc1-c1ccnc(Nc2ccc(N3CCN(Cc4ccccc4)CC3)cc2)n1 | 227 to 229
39 | O=C1Nc2ccc(F)cc2C1c1ncnc2c1cnn2C1CCCCC1 (configuration not stated) | 282 to 286
40 | CS(=O)(=O)c1ccc(C(=O)N[C@H]2CC[C@H](CCN3CCC(c4cccc5c4CCO5)CC3)CC2)cc1 | 236
41 | O=c1ccnc(NCCCN(Cc2ccccc2Cl)c2ccccn2)[nH]1 | 153 to 154
42 | CCc1nc2c(N)nc3cccnc3c2n1NCCCNS(C)(=O)=O | 176 to 178
43 | COc1ncc(C2Nc3ccccc3C(=O)N2c2cccc(C(F)(F)F)c2)cc1Br (configuration not stated) | 192 to 193
44 | COC(=O)/C=C/c1c(-c2ccc(F)cc2)cccc1C(C)C | 87 to 89
45 | C=CCOc1cc2c(cc1C)OC1(CC2(C)C)CC(C)(C)c2cc(OCC=C)c(C)cc2O1 | 98 to 100
46 | OC[C@H]1COc2cc(Cl)ccc2O1 | 73 to 75
47 | CC(=O)n1cc(O)c2cc(Br)ccc21 | 180 to 182
48 | COC(=O)c1ccc(=O)n(Cc2ccc(-c3ccccc3)cc2)c1 | 130 to 133

The remaining lines, values ahead:

Row | melting point [°C] | SMILES
49 | 117 to 118 | COc1cc(Nc2nccc(-c3ccc(NCCN)nc3)n2)cc(OC)c1OC
50 | 166 to 167 | C=CCn1nc(-c2sc(C(=O)NC(C)C)nc2-c2ccccc2)ccc1=O
51 | 75 to 77 | COC(=O)CCSCC(=O)c1cc2c(cc1Cl)NC(=O)C2
52 | 200 to 201 | COc1ccccc1Nc1ncc2cc(-c3c(Cl)cccc3Cl)c(=O)n(C)c2n1
53 | 133 to 136 | CCOC(=O)c1csc(Nc2ccc(F)cc2)n1
54 | 151 to 153 | COC(=O)c1cc(OC)c(C#N)c(OC)c1
55 | 108 to 110 | COc1c(S(=O)(=O)NCc2ccc(Cl)cc2)cc(Br)c2ccc(C)nc12
56 | 218 to 228 | NS(=O)(=O)c1ccc2cc(O)c(O)cc2c1
57 | > 260 | COc1cc(NC(=O)Nc2cccc3c2C2CC(O)CCN2C3=O)nc2ccccc12 (configuration not stated)
58 | 83 to 85 | CSc1nnc(-c2cccs2)n1C
59 | 220 | COc1ccc(C(=O)NN=C(N)N)c(F)c1
60 | 110 to 112 | COc1nc(C(F)(F)F)cc(=O)n1-c1cc(OC(C)=O)c(Cl)cc1F
61 | 67 to 71 | Cn1c(C(F)(F)F)cc(=O)n(-c2c(F)cc(Cl)c3[nH]c(=O)oc23)c1=O
62 | 75 to 77 | COC(=O)c1cc(C=O)cnc1C(=O)OC
63 | 135 to 139 | Cn1c(=O)[nH]c(=O)n(-c2cc([N+](=O)[O-])c(F)cc2Cl)c1=O
64 | 164 to 165 | O=c1nc(-c2cc(-c3ccccc3)ccn2)sc2ccccc12
65 | > 200 | COc1cccc(/C=C/C(=O)N2CC(CCl)c3c2cc(N)c2ccccc32)c1 (configuration not stated)
66 | 191 to 192 | COc1c(Cl)ccc(-c2nc(OC)c3c(ncn3C)n2)c1F
67 | 137 to 138 | CC(Oc1ccc(Cl)cc1Cl)c1ccnc2ncnn12 (configuration not stated)
68 | 166 to 167 | Nc1cc(C=O)nc(-c2ccc(C(F)(F)F)nc2)c1F
69 | 55 to 56 | CCOC(=O)c1cnn(-c2ccc(Cl)cc2)c1C
70 | 196 | O=C(O)c1coc2c(Cl)cc(Cl)cc2c1=O
71 | 110 | O=C(COc1ccc(Cl)cc1Cl)OCNC(=O)Oc1cccc(Cl)c1
72 | 113 to 114 | COc1cc2cc(C)sc2c(Cl)c1Cl
